Experimental data: US10570168B2, “2′ and/or 5′ amino-acid ester phosphoramidate 3′-deoxy adenosine derivatives as anti- cancer compounds” (NuCana plc, priority 2014, dated 2020)

Assays:
Experiment in all cases: Solid tumour and haematological malignancy assay (CellTiterGlo)
Assay type in all cases: cell-based
CCRFCEM = conditions: Homo sapiens, CCRF-CEM, 72 hr
Experimental: (§1) In vitro viability assay were performed to assess the effects of compounds on cell viability in selected cell lines over 72 hr using the CellTiterGlo (CTG, Promega-G7573) assay. […] Cell viability assay using CellTiterGlo in 96-well plate were performed. Compound treatment 72 hrs, standard growth conditions, duplicates. Compounds were dissolved to 40 mM with thawed 100%. […] After compounds were dissolved in media, media containing compounds were warmed to 37° C. in incubator and then compounds in media were added to cell plates ([…]) in duplicates. […] All compound solubilities were checked and recorded again, then the plates were transferred to CO2 tissue culture incubator immediately and incubated for 3 days. DMSO final concentration is 0.5%.

HEL92.1.7 = conditions: Homo sapiens, HEL.92.1.7, 72 hr
Experimental: as §1

HL-60 = conditions: Homo sapiens, HL-60, 72 hr
Experimental: as §1

HT29 = conditions: Homo sapiens, HT-29, HT29, 72 hr
Experimental: as §1

HepG2 = conditions: Homo sapiens, HepG2, 72 hr
Experimental: as §1

K562 = conditions: Homo sapiens, K562, 72 hr
Experimental: as §1

KG-1 = conditions: Homo sapiens, KG-1, 72 hr
Experimental: as §1

MCF7 = conditions: Homo sapiens, MCF7, MCF-7, 72 hr
Experimental: as §1

MiaPaCa-2 = conditions: Homo sapiens, MIA PaCa-2, Mia-Pa-Ca-2, 72 hr
Experimental: as §1

BxPC-3-Luc = conditions: BxPC-3-Luc, 72 hr; read-out: EC50 (absolute EC50)
Experimental: (§2) In vitro viability assay were performed to assess the effects of compounds on cell viability in selected cell lines over 72 hr using the CellTiterGlo (CTG, Promega-G7573) assay. The tests were performed in duplicates with treatment of compounds at 9 points, 3.16 folds titration in 96 well plates over ˜72 hr. The compound starting concentrations were […]. Cell viability assay using CellTiterGlo in 96-well plate were performed. Compound treatment 72 hrs, standard growth conditions, duplicates. Compounds were dissolved to 40 mM with thawed […]. Compounds were serially diluted at 3.16 fold in thawed DMSO, and warmed to 37° C. before being dissolved in media ([…]). After compounds were dissolved in media, media containing compounds were warmed to 37° C. in incubator and then compounds in media were added to cell plates ([…]) in duplicates. The compounds' final concentrations were from […] to 19.9 nM. All compound solubilities were checked and recorded again, then the plates were transferred to CO2 tissue culture incubator immediately and incubated for 3 days. DMSO final concentration is 0.5%.

HS445 = conditions: Hs 445, HS445, 72 hr
Experimental: as §2

MOLT-4 = conditions: Homo sapiens, MOLT-4, 72 hr
Experimental: as §2

MV4-11 = conditions: Homo sapiens, MV4-11, 72 hr
Experimental: as §2

NCI-H929 = conditions: Homo sapiens, NCI-H929, 72 hr
Experimental: as §2

RL = conditions: Homo sapiens, 72 hr
Experimental: as §2

RPMI-8226 = conditions: Homo sapiens, RPMI-8226, 72 hr
Experimental: as §2

SW620 = conditions: Homo sapiens, SW-620, SW620, 72 hr
Experimental: as §2

THP-1 = conditions: Homo sapiens, THP-1, 72 hr
Experimental: as §2

Z138 = conditions: Homo sapiens, Z-138, 72 hr
Experimental: as §2

Nc1nc(Cl)nc2c1ncn2[C@@H]1O[C@H](CO)C[C@H]1O [2-Cl-cordycepin, 3′-deoxy-2-chloroadenosine, reference compound]
Emax (CCRFCEM; Table VII, read-out: MI %): 98.1%
EC50 (CCRFCEM; read-out: EC50 (absolute EC50)): 15 to 100 µM
Emax (HEL92.1.7; Table VII, read-out: MI %): 94.3%
EC50 (HEL92.1.7; read-out: EC50 (absolute EC50)): 5 to 15 µM
Emax (HL-60; Table VII, read-out: MI %): 84.4%
EC50 (HL-60; read-out: EC50 (absolute EC50)): 15 to 100 µM
Emax (HT29; Table VII, read-out: MI %): 4.4%
EC50 (HT29; read-out: EC50 (absolute EC50)): > 100 µM
Emax (HepG2; Table VII, read-out: MI %): 31.1%
EC50 (HepG2; read-out: EC50 (absolute EC50)): > 100 µM
Emax (K562; Table VII, read-out: MI %): 37.6%
EC50 (K562; read-out: EC50 (absolute EC50)): > 100 µM
Emax (KG-1; Table VII, read-out: MI %): 4.3%
EC50 (KG-1; read-out: EC50 (absolute EC50)): > 100 µM
Emax (MCF7; Table VII, read-out: MI %): -0.9%
EC50 (MCF7; read-out: EC50 (absolute EC50)): > 100 µM
Emax (MiaPaCa-2; Table VII, read-out: MI %): 17.7%
EC50 (MiaPaCa-2; read-out: EC50 (absolute EC50)): > 100 µM
EC50 (BxPC-3-Luc): > 100 µM
Emax (HS445; Table VII, read-out: MI %): -1.9%
EC50 (HS445; read-out: EC50 (absolute EC50)): > 100 µM
Emax (MOLT-4; Table VII, read-out: MI %): 80.4%
EC50 (MOLT-4; read-out: EC50 (absolute EC50)): > 100 µM
Emax (MV4-11; Table VII, read-out: MI %): 100%
EC50 (MV4-11; read-out: EC50 (absolute EC50)): 15 to 100 µM
Emax (NCI-H929; Table VII, read-out: MI %): 93.6%
EC50 (NCI-H929; read-out: EC50 (absolute EC50)): 5 to 15 µM
Emax (RL; Table VII, read-out: MI %): 84.1%
EC50 (RL; read-out: EC50 (absolute EC50)): 15 to 100 µM
Emax (RPMI-8226; Table VII, read-out: MI %): 29%
EC50 (RPMI-8226; read-out: EC50 (absolute EC50)): > 100 µM
Emax (SW620; Table VII, read-out: MI %): 36.3%
EC50 (SW620; read-out: EC50 (absolute EC50)): > 100 µM
Emax (THP-1; Table VII, read-out: MI %): 24.1%
EC50 (THP-1; read-out: EC50 (absolute EC50)): > 100 µM
Emax (Z138; Table VII, read-out: MI %): 99.5%
EC50 (Z138; read-out: EC50 (absolute EC50)): 15 to 100 µM
